Results reported in patent US20220088016A1, “CANCER TREATMENT USING MULTI-TARGETED KINASE INHIBITOR IN COMBINATION OF PROTEIN KINASE BIOMARKERS” (ZHEJIANG CROWNMAB BIOTECH CO. LTD., priority 2019, published 2022).

Columns and labels:
[1] = molecular target: ABL1 (F317I)-phosphorylated (Homo sapiens, UniProt P00519, F317I); experiment: Kinase profiling; type: binding; conditions: read-out: % Ctrl @ 1000 nM
[2] = molecular target: ABL1 (F317L)-phosphorylated (Homo sapiens, UniProt P00519, F317L); experiment: Kinase profiling; type: binding; conditions: read-out: % Ctrl @ 1000 nM
[3] = molecular target: AKT1 (Homo sapiens, UniProt P31749); experiment: Kinase profiling; type: binding; conditions: read-out: % Ctrl @ 1000 nM
[4] = molecular target: CAMK1 (Homo sapiens, UniProt Q14012); experiment: Kinase profiling; type: binding; conditions: read-out: % Ctrl @ 1000 nM
[5] = molecular target: CAMK1G (Homo sapiens, UniProt Q96NX5); experiment: Kinase profiling; type: binding; conditions: read-out: % Ctrl @ 1000 nM
[6] = molecular target: CDC2L5 (Homo sapiens, UniProt Q14004); experiment: Kinase profiling; type: binding; conditions: read-out: % Ctrl @ 1000 nM
[7] = molecular target: DMPK (Homo sapiens, UniProt Q09013); experiment: Kinase profiling; type: binding; conditions: read-out: % Ctrl @ 1000 nM
[8] = molecular target: EGFR (E746-A750del) (Homo sapiens, UniProt P00533, DEL746-750); experiment: Kinase profiling; type: binding; conditions: read-out: % Ctrl @ 1000 nM
[9] = molecular target: EGFR (G719C) (Homo sapiens, UniProt P00533, G719C); experiment: Kinase profiling; type: binding; conditions: read-out: % Ctrl @ 1000 nM
[10] = molecular target: EPHA5 (Homo sapiens, UniProt P54756); experiment: Kinase profiling; type: binding; conditions: read-out: % Ctrl @ 1000 nM
[11] = molecular target: EPHA7 (Homo sapiens, UniProt Q15375); experiment: Kinase profiling; type: binding; conditions: read-out: % Ctrl @ 1000 nM
[12] = molecular target: EPHB3 (Homo sapiens, UniProt P54753); experiment: Kinase profiling; type: binding; conditions: read-out: % Ctrl @ 1000 nM
[13] = molecular target: FLT3 (Homo sapiens, UniProt P36888); experiment: Kinase profiling; type: binding; conditions: read-out: % Ctrl @ 1000 nM
[14] = molecular target: FLT3-autoinhibited (Homo sapiens, UniProt P36888); experiment: Kinase profiling; type: binding; conditions: read-out: % Ctrl @ 1000 nM
[15] = molecular target: GRK2 (Homo sapiens, UniProt P25098); experiment: Kinase profiling; type: binding; conditions: read-out: % Ctrl @ 1000 nM
[16] = molecular target: HIPK3 (Homo sapiens, UniProt Q9H422); experiment: Kinase profiling; type: binding; conditions: read-out: % Ctrl @ 1000 nM
[17] = molecular target: JNK2 (Homo sapiens, UniProt P45984); experiment: Kinase profiling; type: binding; conditions: read-out: % Ctrl @ 1000 nM
[18] = molecular target: LCK (Homo sapiens, UniProt P06239); experiment: Kinase profiling; type: binding; conditions: read-out: % Ctrl @ 1000 nM
[19] = molecular target: MAP3K4 (Homo sapiens, UniProt Q9Y6R4); experiment: Kinase profiling; type: binding; conditions: read-out: % Ctrl @ 1000 nM
[20] = molecular target: MAPKAPK2 (Homo sapiens, UniProt P49137); experiment: Kinase profiling; type: binding; conditions: read-out: % Ctrl @ 1000 nM
[21] = molecular target: T1, MEK2 (Homo sapiens, UniProt P36507); experiment: Kinase profiling; type: binding; conditions: read-out: % Ctrl @ 1000 nM
T1 construct: T7 phage fusion (stated for most kinases of the panel only); made in house; host or cells: T7 phage in E. coli (BL21-derived) or HEK-293 cells

[22] = molecular target: T2, MRCKA (Homo sapiens, UniProt Q5VT25); experiment: Kinase profiling; type: binding; conditions: read-out: % Ctrl @ 1000 nM
T2 construct: T7 phage fusion (stated for most kinases of the panel only); made in house; host or cells: T7 phage in E. coli (BL21-derived) or HEK-293 cells

[23] = molecular target: T3, MST1 (Homo sapiens, UniProt Q13043); experiment: Kinase profiling; type: binding; conditions: read-out: % Ctrl @ 1000 nM
T3 construct: T7 phage fusion (stated for most kinases of the panel only); made in house; host or cells: T7 phage in E. coli (BL21-derived) or HEK-293 cells

[24] = molecular target: T4, NEK7 (Homo sapiens, UniProt Q8TDX7); experiment: Kinase profiling; type: binding; conditions: read-out: % Ctrl @ 1000 nM
T4 construct: T7 phage fusion (said for most assays); made in house

[25] = molecular target: p38-beta (Homo sapiens, UniProt Q15759); experiment: Kinase profiling; type: binding; conditions: read-out: % Ctrl @ 1000 nM
[26] = molecular target: p38-delta (Homo sapiens, UniProt O15264); experiment: Kinase profiling; type: binding; conditions: read-out: % Ctrl @ 1000 nM
[27] = molecular target: PAK6 (Homo sapiens, UniProt Q9NQU5); experiment: Kinase profiling; type: binding; conditions: read-out: % Ctrl @ 1000 nM
[28] = molecular target: PIK3CA (Q546K) (Homo sapiens, UniProt P42336, Q546K); experiment: Kinase profiling; type: binding; conditions: read-out: % Ctrl @ 1000 nM
[29] = molecular target: PIK4CB (Homo sapiens, UniProt Q9UBF8); experiment: Kinase profiling; type: binding; conditions: read-out: % Ctrl @ 1000 nM
[30] = molecular target: PKMYT1 (Homo sapiens, UniProt Q99640); experiment: Kinase profiling; type: binding; conditions: read-out: % Ctrl @ 1000 nM
[31] = molecular target: PRP4 (Homo sapiens, UniProt Q13523); experiment: Kinase profiling; type: binding; conditions: read-out: % Ctrl @ 1000 nM
[32] = molecular target: RPS6KA4 (Kin.Dom.2-C-terminal) (Homo sapiens, UniProt O75676); experiment: Kinase profiling; type: binding; conditions: read-out: % Ctrl @ 1000 nM
[33] = molecular target: RSK2 (Kin.Dom.2-C-terminal) (Homo sapiens, UniProt P51812); experiment: Kinase profiling; type: binding; conditions: read-out: % Ctrl @ 1000 nM
[34] = molecular target: STK36 (Homo sapiens, UniProt Q9NRP7); experiment: Kinase profiling; type: binding; conditions: read-out: % Ctrl @ 1000 nM
[35] = molecular target: TBK1 (Homo sapiens, UniProt Q9UHD2); experiment: Kinase profiling; type: binding; conditions: read-out: % Ctrl @ 1000 nM
[36] = molecular target: TIE2 (Homo sapiens, UniProt Q02763); experiment: Kinase profiling; type: binding; conditions: read-out: % Ctrl @ 1000 nM
[37] = molecular target: TRKC (Homo sapiens, UniProt Q16288); experiment: Kinase profiling; type: binding; conditions: read-out: % Ctrl @ 1000 nM
[38] = tested on: 403 non-mutant kinases; experiment: Selectivity Score from kinase profiling
Method: Streptavidin-coated magnetic beads were treated with biotinylated small molecule ligands of the kinases for 30 minutes at room temperature to generate affinity resins for kinase assays. The liganded beads were blocked with excess biotin and washed with blocking buffer (SeaBlock (Pierce), 1% BSA, 0.05% Tween 20, 1 mM DTT) to remove unbound ligand and to reduce non-specific phage binding. Binding reactions were assembled by combining kinases, liganded affinity beads, and test compounds in 1× binding buffer (20% SeaBlock, 0.17×PBS, 0.05% Tween 20, 6 mM DTT). Test compounds were prepared as 40× stocks in 100% DMSO and directly diluted into the assay. All reactions were performed in polypropylene 384-well plates in a final volume of 0.04 ml. The assay plates were incubated at room temperature with shaking for 1 hour and the affinity beads were washed with wash buffer (1×PBS, 0.05% Tween 20). The beads were then re-suspended in elution buffer (1×PBS, 0.05% Tween 20, 0.5 μM non-biotinylated affinity ligand) and incubated at room temperature with shaking for 30 minutes. The kinase concentration in the eluates was measured by qPCR.
Selectivity Score or S-score is a quantitative measure of compound selectivity. It is calculated by dividing the number of kinases that compounds bind to by the total number of distinct kinases tested, excluding mutant variants.
S=Number of hits/Number of assays
This value can be calculated using % Ctrl as a potency threshold (below) and provides a quantitative method of describing compound selectivity to facilitate comparison of different compounds.
S(35)=(number of non-mutant kinases with % Ctrl<35)/(number of non-mutant kinases tested)
S(10)=(number of non-mutant kinases with % Ctrl<10)/(number of non-mutant kinases tested)
S(1)=(number of non-mutant kinases with % Ctrl<1)/(number of non-mutant kinases tested)

STK36, sequence (Q9NRP7 whole entry): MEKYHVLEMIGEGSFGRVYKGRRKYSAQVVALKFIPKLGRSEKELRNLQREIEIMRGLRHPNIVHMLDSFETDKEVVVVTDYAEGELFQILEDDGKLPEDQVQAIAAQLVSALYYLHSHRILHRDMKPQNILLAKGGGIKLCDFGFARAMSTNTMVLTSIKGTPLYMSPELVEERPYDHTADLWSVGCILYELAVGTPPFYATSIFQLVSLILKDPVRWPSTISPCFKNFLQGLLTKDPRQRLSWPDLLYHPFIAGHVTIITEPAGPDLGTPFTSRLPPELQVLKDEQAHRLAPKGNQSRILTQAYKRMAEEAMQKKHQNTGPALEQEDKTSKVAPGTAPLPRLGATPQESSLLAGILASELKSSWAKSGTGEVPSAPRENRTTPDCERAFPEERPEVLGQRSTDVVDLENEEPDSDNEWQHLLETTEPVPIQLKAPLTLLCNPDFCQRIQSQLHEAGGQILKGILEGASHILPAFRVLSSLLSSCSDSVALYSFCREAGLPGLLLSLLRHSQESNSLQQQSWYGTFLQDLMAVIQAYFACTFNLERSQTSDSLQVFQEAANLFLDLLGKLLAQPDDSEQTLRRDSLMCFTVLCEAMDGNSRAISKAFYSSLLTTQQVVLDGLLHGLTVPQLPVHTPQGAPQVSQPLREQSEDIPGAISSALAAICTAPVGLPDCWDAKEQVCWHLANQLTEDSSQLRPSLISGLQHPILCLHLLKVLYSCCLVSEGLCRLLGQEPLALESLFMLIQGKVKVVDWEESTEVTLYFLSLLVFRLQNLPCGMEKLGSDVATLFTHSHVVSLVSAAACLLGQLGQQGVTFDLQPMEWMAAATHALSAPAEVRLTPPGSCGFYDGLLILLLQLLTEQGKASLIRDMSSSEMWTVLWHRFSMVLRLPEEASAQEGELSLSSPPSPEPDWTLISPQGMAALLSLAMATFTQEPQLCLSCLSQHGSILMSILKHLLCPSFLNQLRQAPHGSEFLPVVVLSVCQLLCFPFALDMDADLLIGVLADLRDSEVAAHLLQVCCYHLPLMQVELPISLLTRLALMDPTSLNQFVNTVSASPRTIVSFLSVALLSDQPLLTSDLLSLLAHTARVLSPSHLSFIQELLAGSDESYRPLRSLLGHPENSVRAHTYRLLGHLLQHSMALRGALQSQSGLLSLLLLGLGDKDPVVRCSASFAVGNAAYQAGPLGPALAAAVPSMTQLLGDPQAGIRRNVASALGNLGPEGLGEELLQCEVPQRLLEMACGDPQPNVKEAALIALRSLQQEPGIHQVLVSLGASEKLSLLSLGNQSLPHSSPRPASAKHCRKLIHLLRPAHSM
PIK4CB, sequence (Q9UBF8 whole entry): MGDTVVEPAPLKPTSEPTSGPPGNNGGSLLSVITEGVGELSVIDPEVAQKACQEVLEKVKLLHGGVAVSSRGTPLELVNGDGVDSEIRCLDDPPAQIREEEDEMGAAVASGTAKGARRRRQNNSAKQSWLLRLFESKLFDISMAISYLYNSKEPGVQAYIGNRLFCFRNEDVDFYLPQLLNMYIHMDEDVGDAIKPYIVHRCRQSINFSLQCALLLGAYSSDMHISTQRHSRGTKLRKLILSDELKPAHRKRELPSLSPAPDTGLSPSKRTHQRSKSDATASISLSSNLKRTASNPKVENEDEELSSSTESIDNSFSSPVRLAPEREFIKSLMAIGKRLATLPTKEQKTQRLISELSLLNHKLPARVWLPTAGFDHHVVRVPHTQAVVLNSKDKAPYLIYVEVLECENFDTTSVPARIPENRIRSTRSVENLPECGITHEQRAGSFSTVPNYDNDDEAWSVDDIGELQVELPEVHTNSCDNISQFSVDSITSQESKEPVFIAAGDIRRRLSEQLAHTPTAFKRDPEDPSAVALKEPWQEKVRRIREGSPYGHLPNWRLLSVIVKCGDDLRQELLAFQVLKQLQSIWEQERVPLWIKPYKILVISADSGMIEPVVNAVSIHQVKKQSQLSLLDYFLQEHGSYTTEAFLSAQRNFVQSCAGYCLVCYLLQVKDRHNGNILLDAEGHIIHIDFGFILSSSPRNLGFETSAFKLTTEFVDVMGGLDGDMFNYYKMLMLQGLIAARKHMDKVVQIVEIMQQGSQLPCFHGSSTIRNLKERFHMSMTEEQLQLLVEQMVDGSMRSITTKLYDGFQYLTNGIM
LCK, sequence (P06239 whole entry): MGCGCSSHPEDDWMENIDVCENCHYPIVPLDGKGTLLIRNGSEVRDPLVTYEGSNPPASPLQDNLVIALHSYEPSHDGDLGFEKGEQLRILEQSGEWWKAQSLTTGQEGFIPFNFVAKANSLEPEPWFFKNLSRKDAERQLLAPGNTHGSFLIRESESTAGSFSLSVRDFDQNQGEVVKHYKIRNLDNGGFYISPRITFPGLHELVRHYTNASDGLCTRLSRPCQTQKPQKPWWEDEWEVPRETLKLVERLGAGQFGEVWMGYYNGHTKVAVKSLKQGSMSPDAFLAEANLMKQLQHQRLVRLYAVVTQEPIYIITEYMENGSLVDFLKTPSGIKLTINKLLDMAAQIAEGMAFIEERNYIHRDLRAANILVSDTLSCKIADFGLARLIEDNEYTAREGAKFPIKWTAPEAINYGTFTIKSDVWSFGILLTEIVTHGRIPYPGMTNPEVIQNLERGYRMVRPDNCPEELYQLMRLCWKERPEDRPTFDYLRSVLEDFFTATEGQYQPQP
CAMK1, sequence (Q14012 whole entry): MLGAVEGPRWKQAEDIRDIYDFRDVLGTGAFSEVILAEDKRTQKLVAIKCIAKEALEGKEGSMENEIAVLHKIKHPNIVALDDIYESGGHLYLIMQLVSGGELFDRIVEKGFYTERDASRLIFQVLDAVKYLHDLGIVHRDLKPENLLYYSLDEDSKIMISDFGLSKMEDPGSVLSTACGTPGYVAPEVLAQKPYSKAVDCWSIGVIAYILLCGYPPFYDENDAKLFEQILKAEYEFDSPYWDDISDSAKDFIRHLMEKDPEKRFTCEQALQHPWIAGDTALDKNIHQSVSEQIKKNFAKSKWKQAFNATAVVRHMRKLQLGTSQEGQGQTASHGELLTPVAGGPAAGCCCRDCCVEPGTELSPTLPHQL
EPHB3, sequence (P54753 34-998): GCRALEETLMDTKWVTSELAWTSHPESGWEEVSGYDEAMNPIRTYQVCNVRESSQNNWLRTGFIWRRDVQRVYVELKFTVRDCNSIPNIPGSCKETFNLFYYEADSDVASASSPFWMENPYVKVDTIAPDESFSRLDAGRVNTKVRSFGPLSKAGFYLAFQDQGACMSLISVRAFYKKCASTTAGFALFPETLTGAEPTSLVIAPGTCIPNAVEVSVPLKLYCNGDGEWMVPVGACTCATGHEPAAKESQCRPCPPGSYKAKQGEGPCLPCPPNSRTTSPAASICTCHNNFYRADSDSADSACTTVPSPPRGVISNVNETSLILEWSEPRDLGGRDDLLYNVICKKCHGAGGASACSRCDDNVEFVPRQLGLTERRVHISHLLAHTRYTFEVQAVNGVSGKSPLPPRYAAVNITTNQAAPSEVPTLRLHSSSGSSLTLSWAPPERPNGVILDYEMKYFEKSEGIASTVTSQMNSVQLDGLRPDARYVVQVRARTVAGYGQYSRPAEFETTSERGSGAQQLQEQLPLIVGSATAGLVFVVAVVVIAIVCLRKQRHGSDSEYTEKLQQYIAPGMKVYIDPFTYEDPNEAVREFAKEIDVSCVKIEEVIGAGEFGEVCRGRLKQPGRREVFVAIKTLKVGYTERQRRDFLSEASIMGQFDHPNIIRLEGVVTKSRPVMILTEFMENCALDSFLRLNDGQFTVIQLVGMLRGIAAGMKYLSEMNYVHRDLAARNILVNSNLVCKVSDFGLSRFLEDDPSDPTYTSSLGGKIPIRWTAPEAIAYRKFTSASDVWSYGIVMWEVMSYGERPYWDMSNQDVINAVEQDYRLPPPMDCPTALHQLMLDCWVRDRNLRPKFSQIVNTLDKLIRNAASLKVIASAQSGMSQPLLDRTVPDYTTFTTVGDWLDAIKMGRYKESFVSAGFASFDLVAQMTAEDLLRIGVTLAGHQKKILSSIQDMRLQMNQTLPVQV
PKMYT1, sequence (Q99640 whole entry): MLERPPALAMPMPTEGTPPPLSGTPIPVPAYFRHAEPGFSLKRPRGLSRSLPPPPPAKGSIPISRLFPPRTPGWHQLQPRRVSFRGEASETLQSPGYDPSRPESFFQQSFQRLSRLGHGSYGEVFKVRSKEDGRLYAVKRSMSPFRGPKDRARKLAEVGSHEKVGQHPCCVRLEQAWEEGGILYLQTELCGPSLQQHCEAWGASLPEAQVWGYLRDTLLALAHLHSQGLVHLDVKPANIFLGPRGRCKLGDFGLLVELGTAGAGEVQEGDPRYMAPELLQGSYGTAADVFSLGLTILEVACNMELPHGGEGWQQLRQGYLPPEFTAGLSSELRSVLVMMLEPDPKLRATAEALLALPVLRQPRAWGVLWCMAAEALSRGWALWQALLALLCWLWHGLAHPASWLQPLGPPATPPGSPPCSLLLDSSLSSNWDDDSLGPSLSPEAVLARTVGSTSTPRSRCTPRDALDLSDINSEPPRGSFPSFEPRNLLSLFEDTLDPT
RPS6KA4 (Kin.Dom.2-C-terminal), sequence (O75676 411-674 limits assumed): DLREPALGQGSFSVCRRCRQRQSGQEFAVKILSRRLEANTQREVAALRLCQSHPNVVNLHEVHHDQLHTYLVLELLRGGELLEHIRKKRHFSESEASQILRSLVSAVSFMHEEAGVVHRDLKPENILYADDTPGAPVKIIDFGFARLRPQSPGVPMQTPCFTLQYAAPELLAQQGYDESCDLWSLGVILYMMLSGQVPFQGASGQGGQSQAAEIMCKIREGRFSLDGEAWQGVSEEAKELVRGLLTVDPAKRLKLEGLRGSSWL
RSK2 (Kin.Dom.2-C-terminal), sequence (P51812 422-679 limits assumed): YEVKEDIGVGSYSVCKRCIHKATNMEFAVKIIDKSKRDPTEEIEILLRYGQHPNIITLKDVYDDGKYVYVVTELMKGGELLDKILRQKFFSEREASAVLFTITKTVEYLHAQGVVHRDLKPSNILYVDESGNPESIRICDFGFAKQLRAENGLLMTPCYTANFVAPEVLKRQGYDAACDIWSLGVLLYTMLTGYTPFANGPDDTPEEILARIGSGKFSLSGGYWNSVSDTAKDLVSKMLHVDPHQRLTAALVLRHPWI

SMILES: Cc1cc(Oc2cc(NC(=O)C3CC3)ncn2)ccc1NC(=O)Nc1ccc(Cl)c(C(F)(F)F)c1 [CBT-102]
- remaining activity at 1 µM [1]: 95%
- remaining activity at 1 µM [2]: 52%
- remaining activity at 1 µM [3]: 100%
- remaining activity at 1 µM [4]: 74%
- remaining activity at 1 µM [5]: 91%
- remaining activity at 1 µM [6]: 73%
- remaining activity at 1 µM [7]: 93%
- remaining activity at 1 µM [8]: 95%
- remaining activity at 1 µM [9]: 66%
- remaining activity at 1 µM [10]: 52%
- remaining activity at 1 µM [11]: 4.1%
- remaining activity at 1 µM [12]: 82%
- remaining activity at 1 µM [13]: 2.3%
- remaining activity at 1 µM [14]: 90%
- remaining activity at 1 µM [15]: 100%
- remaining activity at 1 µM [16]: 78%
- remaining activity at 1 µM [17]: 31%
- remaining activity at 1 µM [18]: 15%
- remaining activity at 1 µM [19]: 100%
- remaining activity at 1 µM [20]: 100%
- remaining activity at 1 µM [21]: 76%
- remaining activity at 1 µM [22]: 91%
- remaining activity at 1 µM [23]: 100%
- remaining activity at 1 µM [24]: 88%
- remaining activity at 1 µM [25]: 0%
- remaining activity at 1 µM [26]: 8.6%
- remaining activity at 1 µM [27]: 94%
- remaining activity at 1 µM [28]: 100%
- remaining activity at 1 µM [29]: 100%
- remaining activity at 1 µM [30]: 97%
- remaining activity at 1 µM [31]: 95%
- remaining activity at 1 µM [32]: 100%
- remaining activity at 1 µM [33]: 83%
- remaining activity at 1 µM [34]: 2.5%
- remaining activity at 1 µM [35]: 98%
- remaining activity at 1 µM [36]: 16%
- remaining activity at 1 µM [37]: 37%
- Selectivity Score S (1) ([38]; % Ctrl<1, 1000 nM): 0.032
- Selectivity Score S (10) ([38]; % Ctrl<10, 1000 nM): 0.089
- Selectivity Score S (35) ([38]; % Ctrl<35, 1000 nM): 0.151
- Number of Hits, S (1) ([38]; non-mutant kinases with % Ctrl<1, 1000 nM): 13
- Number of Hits, S (10) ([38]; non-mutant kinases with % Ctrl<10, 1000 nM): 36
- Number of Hits, S (35) ([38]; non-mutant kinases with % Ctrl<35, 1000 nM): 61
